Source: patent publication US6362191B1, “Aminometyl oxooxazolidinyl benzene derivatives” (Zeneca Ltd., priority 1997, dated 2002)
Converted amounts (≈) assume the structure as drawn.

How the values were obtained:
[1] = system: Bacillus subtilis; assay: MIC by agar-dilution, in-vitro antibacterial test; assay type: cell-based; settings: 10^4 CFU/spot
Source text: (§1) The following results were obtained on a standard in-vitro test system. The activity is described in terms of the minimum inhibitory concentration (MIC) determined by the agar-dilution technique with an inoculum size of 10^4 CFU/spot.

[2] = system: Enterococcus faecalis; assay: MIC by agar-dilution, in-vitro antibacterial test; assay type: cell-based; settings: agar with 5% defibrinated horse blood, 10^4 CFU/spot, 37° C., 5% carbon dioxide, 48 hours
Method: (§2) The following results were obtained on a standard in-vitro test system. The activity is described in terms of the minimum inhibitory concentration (MIC) determined by the agar-dilution technique with an inoculum size of 10^4 CFU/spot. Streptococci and enterococci were tested on agar supplemented with 5% defibrinated horse blood, an inoculum of 10^4 CFU/spot and an incubation temperature of 37° C. in an atmosphere of 5% carbon dioxide for 48 hours—blood is required for the growth of some of the test organisms.

[3] = system: Streptococcus pyogenes C203; assay: MIC by agar-dilution, in-vitro antibacterial test; assay type: cell-based; settings: agar with 5% defibrinated horse blood, 10^4 CFU/spot, 37° C., 5% carbon dioxide, 48 hours
Method: as §2

[4] = system: Coagulase Negative Staphylococci MS (methicillin sensitive); assay: MIC by agar-dilution, in-vitro antibacterial test; assay type: cell-based; settings: type MS (methicillin sensitive), 10^4 CFU/spot, 37° C., 24 hours
Method: as §1
(§3) Staphylococci were tested on agar, using an inoculum of 10^4 CFU/spot and an incubation temperature of 37° C. for 24 hours—standard test conditions for the expression of methicillin resistance.

[5] = system: Staphylococcus aureus MRQR (methicillin resistant quinoione resistant); assay: MIC by agar-dilution, in-vitro antibacterial test; assay type: cell-based; settings: type MRQR, 10^4 CFU/spot, 37° C., 24 hours
Method: as §1, §3

[6] = system: Staphylococcus aureus Oxford; assay: MIC by agar-dilution, in-vitro antibacterial test; assay type: cell-based; settings: type Oxford, 10^4 CFU/spot, 37° C., 24 hours
Method: as §1, §3

[7] = system: Coagulase Negative Staphylococci MR (methicillin resistant); assay: MIC by agar-dilution, in-vitro antibacterial test; assay type: cell-based; settings: type MR (methicillin resistant), 10^4 CFU/spot, 37° C., 24 hours
Method: as §1, §3

[8] = system: Staphylococcus aureus Novb. Res. (Novobiocin resistant); assay: MIC by agar-dilution, in-vitro antibacterial test; assay type: cell-based; settings: type Novb. Res. (Novobiocin resistant), 10^4 CFU/spot, 37° C., 24 hours
Method: as §1, §3

Row | Structure (SMILES) | melting point | also measured
1 | CC(=O)NC[C@H]1CN(c2ccc(C(=O)c3cc(C#N)c4ccccn34)cc2)C(=O)O1 [Example 12, N-([(5S)-N-(4-[1-cyanoindolizin-3-ylcarbonyl]phenyl)-2oxooxazolidin-5-yl]methyl)acetamide] | 255 to 257 °C | –
2 | CC(=O)NC[C@H]1CN(c2ccc(C(=O)c3cnc4c(OCc5ccccc5)cccn34)cc2)C(=O)O1 [Example 20, N-([(5S)-N-(4-[8-benzyloxyimidazo[1,2-a]pyridin-3-ylcarbonyl]phenyl)-2-oxooxazolidin-5-yl]methyl)acetamide] | 193 to 195 °C | –
3 | COC(=O)c1ccc2ncc(C(=O)c3ccc(N4C[C@H](CNC(C)=O)OC4=O)cc3)n2c1 [Example 24, N-([(5S)-N-(4-[6-methoxycarbonylimidazo[1,2-a]pyridin-3-ylcarbonyl]phenyl)-2-oxooxazolidin-5-yl]methyl)acetamide] | 231 to 233 °C | –
4 | CC(=O)NC[C@H]1CN(c2ccc(C(=O)c3cnc4cc(-c5ccccc5)ccn34)cc2)C(=O)O1 [Example 25, N-([(5S)-N-(4-[7-phenylimidazo[1,2-a]pyridin-3-ylcarbonyl]phenyl)-2-oxooxazolidin-5-yl]methyl)acetamide] | 256 to 258 °C | –
5 | CC(=O)NC[C@H]1CN(c2ccc(C(=O)c3cnc4ccc([N+](=O)[O-])cn34)cc2)C(=O)O1 [Example 15, N-([(5S)-N-(4-[6-nitroimidazo[1,2-a]pyridin-3-ylcarbonyl]phenyl)-2-oxooxazolidin-5-yl]methyl)acetamide] | 223 to 225 °C | –
6 | COC(=O)c1cccn2c(C(=O)c3ccc(N4C[C@H](CNC(C)=O)OC4=O)cc3)cnc12 [Example 23, N-([(5S)-N-(4-[8-methoxycarbonylimidazo[1,2-a]pyridin-3-ylcarbonyl]phenyl)-2-oxooxazolidin-5-yl]methyl)acetamide] | 202 to 204 °C | –
7 | CC(=O)NC[C@H]1CN(c2ccc(C(=O)c3cnc4c5ccccc5ccn34)cc2)C(=O)O1 [Example 9, N-([(5S)-N-(4-[imidazo[2,1-a]isoquinol-3-ylcarbonyl]phenyl)-2-oxooxazolidin-5-yl]methyl)acetamide] | 239 to 240 °C | –
8 | CC(=O)NC[C@H]1CN(c2ccc(C(=O)c3cnc4ccc(Cl)nn34)cc2)C(=O)O1 [Example 44, N-([(5S)-N-(4-[6-chloroimidazo[1,2-b]pyridazin-3-ylcarbonyl]phenyl)-2-oxooxazolidin-5-yl]methyl)acetamide] | 194 to 196 °C | –
9 | CC(=O)NC[C@H]1CN(c2ccc(C(=O)c3cnc4sccn34)cc2)C(=O)O1 [Example 10, N-([(5S)-N-(4[imidazo[2,1-b]thiazol-5-ylcarbonyl]phenyl)-2-oxooxazolidin-5-yl]methyl)acetamide] | – | MIC [1]: 0.125 µg/mL (≈ 0.325 µM); MIC [2]: 0.25 µg/mL (≈ 0.65 µM); MIC [3]: 0.03 µg/mL (≈ 0.078 µM); MIC [4]: 0.06 µg/mL (≈ 0.156 µM); MIC [5]: 0.5 µg/mL (≈ 1.3 µM); MIC [6]: 0.13 µg/mL (≈ 0.338 µM); MIC [7]: 0.13 µg/mL (≈ 0.338 µM); MIC [8]: 0.13 µg/mL (≈ 0.338 µM)
10 | CC(=O)NC[C@H]1CN(c2ccc(C(=O)c3cnc4ccccn34)c(F)c2)C(=O)O1 [Example 22, N-([(5S)-N-(4[imidazo[1,2-a]pyridin-3-ylcarbonyl]{3-fluorophenyl})-2-oxooxazolidin-5-yl]methyl)acetamide] | 196 to 198 °C | –
11 | CC(=O)NC[C@H]1CN(c2ccc(C(=O)c3cnc4cnccn34)cc2)C(=O)O1 [Example 45, N-([(5S)-N-(4-[imidazo[1,2-a]pyrazin-3-ylcarbonyl]phenyl)-2-oxooxazolidin-5-yl]methyl)acetamide] | 254 to 256 °C | –
12 | CC(=O)NC[C@H]1CN(c2ccc(C(=O)c3ccc[nH]3)cc2)C(=O)O1 [Example 47, N-([(5S)-N-(4-[pyrrol-2-ylcarbonyl]phenyl)-2-oxooxazolidin-5-yl]methyl)acetamide] | 202 to 205 °C | –
13 | CC(=O)NC[C@H]1CN(c2ccc(C(=O)c3cnc4ccccn34)cc2)C(=O)O1 [Example 5, N-([(5S)-N-(4-[imidazo[1,2-a]pyridin-3-ylcarbonyl]phenyl)-2-oxooxazolidin-5-yl]methyl)acetamide] | 218 to 220 °C | –
14 | CC(=O)NC[C@H]1CN(c2ccc(C(=O)c3cnc4ncccn34)cc2)C(=O)O1 [Example 6, N-([(5S)-N-(4-[imidazo[1,2-a]pyrimidin-3-ylcarbonyl]phenyl)-2-oxooxazolidin-5-yl]methyl)acetamide] | 257 to 260 °C | –

Continued, in another order:

Row | melting point | Structure (SMILES) | also measured
15 | 228 to 229 °C | CC(=O)NC[C@H]1CN(c2ccc(C(=O)c3cnc4c(Cl)cc(Cl)cn34)cc2)C(=O)O1 [Example 11, N-([(5S)-N-(4-[6,8-dichloroimidazo[1,2-a]pyridin-3-ylcarbonyl]phenyl)-2-oxooxazolidin-5-yl]methyl)acetamide] | –
16 | 253 to 255 °C (dec.) | CC(=O)NC[C@H]1CN(c2ccc(C(=O)c3cnc4c(O)cccn34)cc2)C(=O)O1 [Example 26, N-([(5S)-N-(4-[8-hydroxyimidazo[1,2-a]pyridin-3-ylcarbonyl]phenyl)-2-oxooxazolidin-5-yl]methyl)acetamide] | –
17 | 230 to 232 °C | CC(=O)NC[C@H]1CN(c2ccc(C(=O)c3cnc4ccc(Br)cn34)cc2)C(=O)O1 [Example 8, N-([(5S)-N-(4-[6-bromoimidazo[1,2-a]pyridin-3-ylcarbonyl]phenyl)-2-oxooxazolidin-5-yl]methyl)acetamide] | –
18 | 234 to 235 °C | CC(=O)NC[C@H]1CN(c2ccc(C(=O)c3cnc4ccc(Cl)cn34)cc2)C(=O)O1 [Example 14, N-([(5S)-N-(4-[6-chloroimidazo[1,2-a]pyridin-3-ylcarbonyl]phenyl)-2-oxooxazolidin-5-yl]methyl)acetamide] | –
19 | 229 to 230 °C | CC(=O)NC[C@H]1CN(c2ccc(C(=O)c3cnc4c([N+](=O)[O-])cccn34)cc2)C(=O)O1 [Example 16, N-([(5S)-N-(4-[8-nitroimidazo[1,2-a]pyridin-3-ylcarbonyl]phenyl)-2-oxooxazolidin-5-yl]methyl)acetamide] | –
20 | 221 to 223 °C | CC(=O)NC[C@H]1CN(c2ccc(C(=O)c3cnc4c(Br)cc(C)cn34)cc2)C(=O)O1 [Example 19, N-([(5S)-N-(4-[8-bromo-6-methylimidazo[1,2-a]pyridin-3-ylcarbonyl]phenyl)2-oxooxazolidin-5-yl]methyl)acetamide] | –
21 | 248 to 250 °C | CC(=O)NC[C@H]1CN(c2ccc(C(=O)c3ccc4cnc(C)cn34)cc2)C(=O)O1 [Example 4, N-([(5S)-N-(4-[3-methylpyrrolo[1,2-a]pyrazin-6-ylcarbonyl]phenyl)-2-oxooxazolidin-5-yl]methyl)acetamide] | –
22 | 237 to 239 °C | CC(=O)NC[C@H]1CN(c2ccc(C(=O)c3ccc4ccc(C)cn34)cc2)C(=O)O1 [Example 2, N-([(5S)-N-(4-[6-methylindolizin-3-ylcarbonyl]phenyl)-2-oxooxazolidin-5-yl]methyl)acetamide] | –
23 | 253 to 254 °C | CC(=O)NC[C@H]1CN(c2ccc(C(=O)c3cnc4nc(C)cc(C)n34)cc2)C(=O)O1 [Example 7, N-([(5S)-N-(4-[5,7-dimethylimidazo[1,2-a]pyrimidin-3-ylcarbonyl]phenyl)-2-oxooxazolidin-5-yl]methyl)acetamide] | –
24 | 216 to 220 °C | CC(=O)NC[C@H]1CN(c2ccc(C(=O)c3cnc4cnc(Br)cn34)cc2)C(=O)O1 [Example 43, N-([(5S)-N-(4-[6-bromoimidazo[1,2-a]pyrazin-3-ylcarbonyl]phenyl)-2-oxooxazolidin-5-yl]methyl)acetamide] | –
25 | 224 to 226 °C | CC(=O)NC[C@H]1CN(c2ccc(C(=O)c3cnc4ccc(F)cn34)cc2)C(=O)O1 [Example 27, N-([(5S)-N-(4-[6-fluoroimidazo[1,2-a]pyridin-3-ylcarbonyl]phenyl)-2-oxooxazolidin-5-yl]methyl)acetamide] | –
26 | 254 to 256 °C | CC(=O)NC[C@H]1CN(c2ccc(C(=O)c3cnc4cc(C)ccn34)cc2)C(=O)O1 [Example 13, N-([(5S)-N-(4-[7-methylimidazo[1,2-a]pyridin-3-ylcarbonyl]phenyl)-2-oxooxazolidin-5-yl]methyl)acetamide] | –
